Measurements as given in patent publication US20210238192A1, “VASCULAR ADHESION PROTEIN-1 (VAP-1) MODULATORS AND THERAPEUTIC USES THEREOF” (Blade Therapeutics, Inc., priority 2018, published 2021).
Structures can show the parent of a compound that is named as a salt.

Columns and labels:
Assay type in all cases: biochemical
Human VAP-1 = target: T1, Human VAP-1 (Homo sapiens, UniProt Q16853); assay: VAP-1 inhibition assay (Amplex Red continuous fluorescence assay); conditions: 30 min pre-incubation at 37° C.; substrate benzylamine; read-out: Human VAP-1 IC50
T1 sequence (Q16853 1-763): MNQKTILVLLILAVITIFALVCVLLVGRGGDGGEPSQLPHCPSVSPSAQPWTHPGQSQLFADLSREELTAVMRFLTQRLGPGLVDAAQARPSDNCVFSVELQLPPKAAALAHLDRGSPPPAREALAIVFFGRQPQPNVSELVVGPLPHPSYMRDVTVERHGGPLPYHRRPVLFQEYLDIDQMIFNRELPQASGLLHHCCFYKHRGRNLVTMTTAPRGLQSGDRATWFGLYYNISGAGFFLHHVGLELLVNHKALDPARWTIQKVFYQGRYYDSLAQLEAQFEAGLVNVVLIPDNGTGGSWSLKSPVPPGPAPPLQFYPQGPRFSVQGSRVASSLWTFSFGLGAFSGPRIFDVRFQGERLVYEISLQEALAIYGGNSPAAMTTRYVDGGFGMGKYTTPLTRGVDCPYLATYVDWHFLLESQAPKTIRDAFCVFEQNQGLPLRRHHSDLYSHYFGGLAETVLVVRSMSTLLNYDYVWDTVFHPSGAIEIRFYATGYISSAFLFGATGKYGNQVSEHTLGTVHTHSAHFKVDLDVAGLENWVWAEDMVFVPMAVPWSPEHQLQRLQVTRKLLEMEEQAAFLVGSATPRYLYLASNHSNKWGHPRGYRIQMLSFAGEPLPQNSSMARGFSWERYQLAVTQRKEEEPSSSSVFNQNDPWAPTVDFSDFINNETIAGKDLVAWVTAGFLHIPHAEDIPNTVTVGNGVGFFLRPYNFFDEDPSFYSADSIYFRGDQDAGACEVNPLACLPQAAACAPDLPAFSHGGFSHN
Summary of the method: (§1)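 Continuous Amplex Red/HRP fluorescence read of H2O2 (ex/em 510/565 nm, 5 min). Substrates and buffers: VAP-1 benzylamine, […] sodium phosphate pH 7.4, 30 min 37° C preincubation; MAO-A tyramine and MAO-B benzylamine, same buffer, room temp; DAO histamine, 50 mM HEPES pH 7.5, room temp. IC50 from 4-parameter fit of rates.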

Human DAO = target: T2, Human DAO (Homo sapiens, UniProt P19801); assay: DAO inhibition (Amplex Red continuous fluorescence assay); conditions: 30 min pre-incubation at room temp; substrate histamine; read-out: Human DAO IC50
T2 sequence (P19801 20-751): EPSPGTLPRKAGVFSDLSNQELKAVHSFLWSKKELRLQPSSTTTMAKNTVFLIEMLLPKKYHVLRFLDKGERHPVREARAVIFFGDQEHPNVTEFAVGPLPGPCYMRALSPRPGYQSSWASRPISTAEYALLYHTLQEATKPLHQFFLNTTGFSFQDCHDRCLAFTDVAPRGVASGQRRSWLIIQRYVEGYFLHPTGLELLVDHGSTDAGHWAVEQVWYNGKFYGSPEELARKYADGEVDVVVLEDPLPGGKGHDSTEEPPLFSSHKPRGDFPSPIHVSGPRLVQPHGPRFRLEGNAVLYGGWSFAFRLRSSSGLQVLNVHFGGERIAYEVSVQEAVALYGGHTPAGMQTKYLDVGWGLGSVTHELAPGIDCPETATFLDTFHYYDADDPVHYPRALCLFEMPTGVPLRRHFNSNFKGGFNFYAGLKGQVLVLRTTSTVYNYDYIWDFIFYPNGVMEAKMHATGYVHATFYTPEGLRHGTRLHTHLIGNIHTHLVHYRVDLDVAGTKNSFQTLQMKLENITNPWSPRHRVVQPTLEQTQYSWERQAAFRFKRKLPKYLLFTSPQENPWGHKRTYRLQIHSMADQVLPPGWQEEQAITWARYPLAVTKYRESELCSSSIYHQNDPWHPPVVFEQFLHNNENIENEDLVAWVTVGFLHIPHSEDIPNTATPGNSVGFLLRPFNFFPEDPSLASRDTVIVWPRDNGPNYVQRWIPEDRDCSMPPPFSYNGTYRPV
Summary of the method: as §1

Human MAO-B = target: T3, Human MAO-B (Homo sapiens, UniProt P27338); assay: MAO-B inhibition (Amplex Red continuous fluorescence assay); conditions: 30 min pre-incubation at room temp; substrate benzylamine; read-out: Human MAO-B IC50
T3 sequence (P27338 1-520): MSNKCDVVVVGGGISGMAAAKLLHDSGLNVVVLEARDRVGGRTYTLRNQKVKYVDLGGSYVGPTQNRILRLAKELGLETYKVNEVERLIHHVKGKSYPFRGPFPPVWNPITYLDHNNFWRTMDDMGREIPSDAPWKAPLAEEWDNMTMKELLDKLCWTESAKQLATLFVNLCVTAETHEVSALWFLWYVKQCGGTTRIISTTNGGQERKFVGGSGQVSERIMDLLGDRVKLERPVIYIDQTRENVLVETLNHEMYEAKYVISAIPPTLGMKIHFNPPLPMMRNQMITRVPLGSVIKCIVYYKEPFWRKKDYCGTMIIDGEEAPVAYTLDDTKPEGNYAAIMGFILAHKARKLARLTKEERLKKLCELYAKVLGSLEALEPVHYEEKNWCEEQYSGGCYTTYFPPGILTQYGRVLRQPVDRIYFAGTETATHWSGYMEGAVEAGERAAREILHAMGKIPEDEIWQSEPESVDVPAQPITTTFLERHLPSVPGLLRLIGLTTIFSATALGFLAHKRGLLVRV
Summary of the method: as §1

Human MAO-A = target: T4, Human MAO-A (Homo sapiens, UniProt P21397); assay: MAO-A inhibition (Amplex Red continuous fluorescence assay); conditions: 30 min pre-incubation at room temp; substrate tyramine; read-out: Human MAO-A IC50
T4 sequence (P21397 1-527): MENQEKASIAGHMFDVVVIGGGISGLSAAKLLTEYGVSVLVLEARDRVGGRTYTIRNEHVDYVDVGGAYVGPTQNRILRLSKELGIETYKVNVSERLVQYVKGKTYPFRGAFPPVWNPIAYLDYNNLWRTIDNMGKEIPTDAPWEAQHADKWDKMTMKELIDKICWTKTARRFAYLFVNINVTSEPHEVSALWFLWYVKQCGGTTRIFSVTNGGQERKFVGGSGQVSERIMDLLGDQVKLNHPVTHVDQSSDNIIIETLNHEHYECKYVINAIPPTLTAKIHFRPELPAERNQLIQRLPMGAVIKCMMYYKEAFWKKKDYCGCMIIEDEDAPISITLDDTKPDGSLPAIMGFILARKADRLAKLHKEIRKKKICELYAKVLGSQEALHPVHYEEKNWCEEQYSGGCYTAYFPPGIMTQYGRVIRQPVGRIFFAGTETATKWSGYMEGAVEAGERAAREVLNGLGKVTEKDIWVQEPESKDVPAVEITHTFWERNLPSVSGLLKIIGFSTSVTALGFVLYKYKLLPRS
Summary of the method: as §1

IC50 (Human VAP-1) [µM] | IC50 (Human DAO) [µM] | IC50 (Human MAO-B) [µM] | IC50 (Human MAO-A) [µM] | Structure (SMILES)
< 3 | 3 to 10 | > 10 | > 10 | NC/C(=C\F)COc1ccc(-c2nnn[nH]2)cc1 [Compound 51, (E)-2-((4-(1H-tetrazol-5-yl)phenoxy)methyl)-3-fluoroprop-2-en-1-amine hydrochloride]
< 3 | < 3 | > 10 | > 10 | NC/C(=C/F)COc1ccc(-c2nnn[nH]2)cc1 [Compound 52, (Z)-2-((4-(1H-tetrazol-5-yl)phenoxy)methyl)-3-fluoroprop-2-en-1-amine hydrochloride]
< 3 | < 3 | < 3 | 3 to 10 | NC/C(=C/F)COc1ccc(-c2ncco2)cc1 [Compound 53, (Z)-3-fluoro-2-((4-(oxazol-2-yl)phenoxy)methyl)prop-2-en-1-amine hydrochloride]
< 3 | < 3 | < 3 | 3 to 10 | Cn1ccc(-c2ccc(OC/C(=C\F)CN)cc2)n1 [Compound 54, (Z)-3-fluoro-2-((4-(1-methyl-1H-pyrazol-3-yl)phenoxy)methyl)prop-2-en-1-amine hydrochloride]
< 3 | < 3 | 3 to 10 | < 3 | NC/C(=C\F)Cn1ncc(-c2ccc(O)cc2)n1 [Compound 57, (E)-4-(2-(2-(aminomethyl)-3-fluoroalkyl)-2H-1,2,3-triazol-4-yl)phenol hydrochloride]
< 3 | < 3 | < 3 | < 3 | NC/C(=C/F)Cn1ncc(-c2ccc(O)cc2)n1 [Compound 58, (Z)-4-(2-(2-(aminomethyl)-3-fluoroalkyl)-2H-1,2,3-triazol-4-yl)phenol hydrochloride]
< 3 | > 10 | < 3 | > 10 | CC(C)(C)NC(=O)c1ccc2c(ccn2C/C(=C/F)CN)c1 [Compound 59, (E)-1-(2-(aminomethyl)-3-fluoroalkyl)-N-(tert-butyl)-1H-indole-5-carboxamide]
< 3 | < 3 | < 3 | < 3 | NCC(=CF)COc1ccc(-c2cnn[nH]2)cc1 [Compound 60]
< 3 | < 3 | > 10 | > 10 | NC/C(=C\F)COc1ccc(C2=NCCN2)cc1 [Compound 61, (E)-2-((4-(4,5-dihydro-1H-imidazol-2-yl)phenoxy)methyl)-3-fluoroprop-2-en-1-amine]
< 3 | < 3 | > 10 | > 10 | NC/C(=C\F)CN1CCc2ccccc21 [Compound 62, (E)-3-fluoro-2-(indolin-1-ylmethyl)prop-2-en-1-amine hydrochloride]
< 3 | < 3 | > 10 | > 10 | NC/C(=C/F)COc1ccc(-c2ncc[nH]2)cc1 [Compound 63, (Z)-2-((4-(1H-imidazol-2-yl)phenoxy)methyl)-3-fluoroprop-2-en-1-amine]
< 3 | < 3 | < 3 | 3 to 10 | NC/C(=C\F)COc1ccc(-c2ncn[nH]2)cc1 [Compound 64, (E)-2-((4-(1H-1,2,4-triazol-5-yl)phenoxy)methyl)-3-fluoroprop-2-en-1-amine]
< 3 | < 3 | 3 to 10 | 3 to 10 | NC/C(=C\F)COC(=O)Nc1ccccc1 [Compound 65, (E)-2-(aminomethyl)-3-fluoroalkyl phenylcarbamate]
< 3 | > 10 | > 10 | > 10 | CCNC(=O)N(C)c1ccc(NC/C(=C/F)CN)cc1 [Compound 66, (E)-1-(4-((2-(aminomethyl)-3-fluoroalkyl)amino)phenyl)-3-ethyl-1-methylurea]
< 3 | 3 to 10 | 3 to 10 | > 10 | CCNC(=O)N(C)c1ccc(NC/C(=C\F)CN)cc1 [Compound 67, (Z)-1-(4-((2-(aminomethyl)-3-fluoroalkyl)amino)phenyl)-3-ethyl-1-methylurea]
< 3 | < 3 | < 3 | < 3 | NC/C(=C/F)COC(=O)Nc1ccccc1 [Compound 68, (Z)-2-(aminomethyl)-3-fluoroalkyl phenylcarbamate]
< 3 | > 10 | < 3 | > 10 | CC(C)(C)NC(=O)c1cccc2c1ccn2CC(=CF)CN [Compound 69, 1-(2-(aminomethyl)-3-fluoroalkyl)-N-(tert-butyl)-1H-indole-4-carboxamide]
< 3 | 3 to 10 | > 10 | < 3 | NC/C(=C\F)CNC(=O)Nc1ccccc1 [Compound 71]

Structure (SMILES) | IC50 (Human VAP-1) [µM] | IC50 (Human DAO) [µM] | IC50 (Human MAO-B) [µM] | IC50 (Human MAO-A) [µM]
CCNC(=O)Oc1ccc(OC/C(=C/F)CN)cc1 [Compound 55, (E)-4-((2-(aminomethyl)-3-fluoroalkyl)oxy)phenyl ethylcarbamate] | < 3 | > 10 | < 3 | < 3
CCNC(=O)Oc1ccc(OC/C(=C\F)CN)cc1 [Compound 56, (Z)-4-((2-(aminomethyl)-3-fluoroalkyl)oxy)phenyl ethylcarbamate] | < 3 | < 3 | < 3 | < 3
CC(C)(C)NC(=O)c1cn(CC(=CF)CN)c2ccccc12 [Compound 70, 1-(2-(aminomethyl)-3-fluoroalkyl)-N-(tert-butyl)-1H-indole-3-carboxamide] | < 3 | > 10 | > 10 | < 3
